Experimental data published in US5656590A, “Treatment of anorexia and related states” (Amylin Pharmaceuticals, Inc., priority 1993, dated 1997).
Ends that are not written are not given here.

Legend:
[1] = amylin agonist activity in vivo: ability to induce hyperlactemia and/or hyperglycemia in mammals; conditions: treated test animals
Excerpt: Analogues of amylin can be assayed for activity in the soleus muscle assay described above. Amylin agonist activity of compounds may also be assessed by the ability to induce hyperlactemia and/or hyperglycemia in mammals. […] These preferred compounds include ^25 Pro^26 Val^28,29 Pro-h-amylin, ^25,28,29 Pro-h-amylin, and ^18 Arg^25,28 Pro-h-amylin.

[2] = solubility and stability characteristics compared to human amylin; assay type: physicochemical
[3] = toxicological studies with amylin, two weeks of administration (rats); assay type: in vivo
Excerpt: (§1) While this proposal is counter to reports that amylin can suppress appetite (which is clearly an undesirable feature for treatment of anorexia or cachectic states), applicant believes that the appetite suppressant effects of amylin is seen only at very high doses and may be short lived. Indeed, applicant has discovered that in toxicological studies with amylin in both rats and dogs, where two weeks of amylin administration were used, there was no reduction in food intake or weight in the animal.

[4] = toxicological studies with amylin, two weeks of administration (dogs); assay type: in vivo
Excerpt: as §1

[5] = administration of amylin to anesthetized rats: blood lactate and blood glucose; assay type: in vivo
Excerpt: The term "amylin" is used in this application to include compounds defined by Young et al., U.S. application Ser. No. 07/640,478, filed Jan. 10, 1991, now U.S. Pat. No. 5,234,906, entitled "Hyperglycemic Compositions", which (including drawings) is hereby incorporated by reference. For example, it includes the peptide hormone, and species variations of it, referred to as amylin which is synthesized and secreted from the beta cells of the pancreas. Thus, it includes human amylin, cat amylin, dog amylin; rat amylin, mouse amylin, hamster amylin, and guinea pig amylin. Preferably the amylin has an EC50 of less than 1 nM in the rat soleus muscle assay as described in, for example, European Patent Application 88307927.9. Amylin functions along with insulin, which is stored and released from the same pancreatic beta cells, to regulate fuel metabolism. Amylin acts through receptors located in skeletal muscle to increase glycogen turnover in this tissue, believed to result in an increased return to the bloodstream of lactate, which is a major precursor of hepatic gluconeogenesis. Amylin cosecretion with insulin after meals therefore results in restoration of hepatic glycogen content and limits the potential which would otherwise exist for insulin to induce hypoglycemia. […]

[6] = system: liver glucose output; conditions: rats; cited from earlier work

^18 Arg^25,28 Pro-h-amylin
amylin activity in vivo (hyperlactemia, hyperglycemia) [1]: marked hyperlactemia followed by hyperglycemia
solubility characteristics [2]: more desireable
stability characteristics [2]: more desireable

^25 Pro^26 Val^28,29 Pro-h-amylin
solubility characteristics [2]: more desireable
stability characteristics [2]: more desireable

^25,28,29 Pro-h-amylin (KCNTATCATQRLANFLVHSSNNFGPILPPTNVGSNTY; ends and bridges not checked; cysteine pairing not given here; UniProt P10997 34-70, looked up, variant A25P S28P S29P) [agonist analogue of human amylin]
amylin activity in vivo (hyperlactemia, hyperglycemia) [1]: marked hyperlactemia followed by hyperglycemia
solubility characteristics [2]: more desireable
stability characteristics [2]: more desireable

^28 Pro-h-amylin (KCNTATCATQRLANFLVHSSNNFGAILPSTNVGSNTY; ends and bridges not checked; cysteine pairing not given here; UniProt P10997 34-70, looked up, variant S28P) [agonist analogue of human amylin]
amylin activity in vivo (hyperlactemia, hyperglycemia) [1]: marked hyperlactemia followed by hyperglycemia

amylin (KCNTATCATQRLANFLVHSSNNFGAILSSTNVGSNTY; Islet amyloid polypeptide; UniProt P10997 34-70, looked up) [peptide hormone, and species variations of it, synthesized and secreted from the beta cells of the pancreas]
reduction in food intake [3]: no reduction
reduction in weight [3]: no reduction
reduction in food intake [4]: no reduction
reduction in weight [4]: no reduction
blood lactate levels [5]: large increases in blood lactate levels
blood glucose levels ([5]; following the lactate increase): increased blood glucose levels
effect on insulin-mediated suppression of liver glucose output [6]: reverses insulin-mediated suppression of liver glucose output

des-^1 Lys-h-amylin (CNTATCATQRLANFLVHSSNNFGAILSSTNVGSNTY; ends and bridges not checked; cysteine pairing not given here; UniProt P10997 34-70, looked up, variant K1*) [agonist analogue of human amylin]
amylin activity in vivo (hyperlactemia, hyperglycemia) [1]: marked hyperlactemia followed by hyperglycemia

des-^1 Lys^18 Arg^25,28 Pro-h-amylin
amylin activity in vivo (hyperlactemia, hyperglycemia) [1]: marked hyperlactemia followed by hyperglycemia
